What follows are molecules tested against HSD17B13 (Homo sapiens (Human), UniProt Q7Z5P4) (assay: HSD17B13 enzymatic inhibition assay (150 nM or 50 nM HSD17B13)). Settings: 50 nM HSD17B13; read-out: Inhibition of 50 nM of HSD17B13 IC50.
Format: biochemical

Chain of HSD17B13 (Q7Z5P4 other isoform, or with tags, fused parts or gaps): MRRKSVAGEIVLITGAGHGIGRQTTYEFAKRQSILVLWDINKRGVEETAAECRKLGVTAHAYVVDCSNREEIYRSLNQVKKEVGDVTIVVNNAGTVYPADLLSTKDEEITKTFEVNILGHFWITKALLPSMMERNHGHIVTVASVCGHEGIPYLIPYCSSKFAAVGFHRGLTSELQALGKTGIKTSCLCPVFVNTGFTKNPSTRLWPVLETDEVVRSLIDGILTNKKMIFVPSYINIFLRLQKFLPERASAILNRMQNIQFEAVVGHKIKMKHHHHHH

SMILES | IC50 [nM]
O=C(NC1c2ccccc2Oc2cnccc21)c1ccc(C(F)(F)F)[nH]c1=O (stereo not drawn) [Compound 333, N-(5H-chromeno[2,3-c]pyridin-5-yl)-2-oxo-6-(trifluoromethyl)-1,2-dihydropyridine-3-carboxamide] | 740
O=C(NC1c2ccccc2Oc2ncccc21)c1ccc(C(F)(F)F)[nH]c1=O (stereo not drawn) [Compound 334, N-(5H-chromeno[2,3-b]pyridin-5-yl)-2-oxo-6-(trifluoromethyl)-1,2-dihydropyridine-3-carboxamide] | 2390
O=C(NC1CCCc2c(CCc3ccccc3)cccc21)c1ccc(C(F)(F)F)[nH]c1=O (stereo not drawn) [Compound 335, 2-oxo-N-(5-phenethyl-1,2,3,4-tetrahydronaphthalen-1-yl)-6-(trifluoromethyl)-1,2-dihydropyridine-3-carboxamide] | 4470
CCN1CCC(NC(=O)c2ccc(C(F)(F)F)[nH]c2=O)c2ccc(C)cc21 (stereo not drawn) [Compound 336, N-(1-ethyl-7-methyl-1,2,3,4-tetrahydroquinolin-4-yl)-2-oxo-6-(trifluoromethyl)-1,2-dihydropyridine-3-carboxamide] | 5790
CCCN1CCC(NC(=O)c2ccc(C(F)(F)F)[nH]c2=O)c2ccc(C)cc21 (stereo not drawn) [Compound 337, N-(7-methyl-1-propyl-1,2,3,4-tetrahydroquinolin-4-yl)-2-oxo-6-(trifluoromethyl)-1,2-dihydropyridine-3-carboxamide] | 4190
Cc1ccc2c(c1)N(C)CCC2NC(=O)c1ccc(C(F)(F)F)[nH]c1=O (stereo not drawn) [Compound 338, N-(1,7-dimethyl-1,2,3,4-tetrahydroquinolin-4-yl)-2-oxo-6-(trifluoromethyl)-1,2-dihydropyridine-3-carboxamide] | 4260
Cc1ccc2c(c1)C(NC(=O)c1ccc(C(F)(F)F)[nH]c1=O)CCN2 (stereo not drawn) [Compound 339, N-(6-methyl-1,2,3,4-tetrahydroquinolin-4-yl)-2-oxo-6-(trifluoromethyl)-1,2-dihydropyridine-3-carboxamide] | 2820
CCCC1=Cc2ccc(C)cc2C1NC(=O)c1ccc(C(F)(F)F)[nH]c1=O (stereo not drawn) [Compound 340, N-(6-methyl-2-propyl-1H-inden-1-yl)-2-oxo-6-(trifluoromethyl)-1,2-dihydropyridine-3-carboxamide] | 190
CCCC1=C(NC(=O)c2ccc(C(F)(F)F)[nH]c2=O)c2ccc(C)cc2C1O (stereo not drawn) [Compound 342, N-(1-hydroxy-6-methyl-2-propyl-1H-inden-3-yl)-2-oxo-6-(trifluoromethyl)-1,2-dihydropyridine-3-carboxamide] | 100
CC1=C(NC(=O)c2ccc(C(F)(F)F)[nH]c2=O)c2ccccc2C1=O [Compound 343, N-(2-methyl-1-oxo-1H-inden-3-yl)-2-oxo-6-(trifluoromethyl)-1,2-dihydropyridine-3-carboxamide] | 6260
CCCC1=C(NC(=O)c2ccc(C(F)(F)F)[nH]c2=O)c2ccc(C)cc2C1=O [Compound 344, N-(6-methyl-1-oxo-2-propyl-1H-inden-3-yl)-2-oxo-6-(trifluoromethyl)-1,2-dihydropyridine-3-carboxamide] | 2250
O=C(NC1CCCc2c(CO)cccc21)c1ccc(C(F)(F)F)[nH]c1=O (stereo not drawn) [Compound 345, N-(5-(hydroxymethyl)-1,2,3,4-tetrahydronaphthalen-1-yl)-2-oxo-6-(trifluoromethyl)-1,2-dihydropyridine-3-carboxamide] | 8970
O=C(NC1CCCc2c(CCO)cccc21)c1ccc(C(F)(F)F)[nH]c1=O (stereo not drawn) [Compound 346, N-(5-(2-hydroxyethyl)-1,2,3,4-tetrahydronaphthalen-1-yl)-2-oxo-6-(trifluoromethyl)-1,2-dihydropyridine-3-carboxamide] | 7030
Cc1cccc2c1CCCC2NC(=O)c1ccc(C(F)(F)F)[nH]c1=O (stereo not drawn) [Compound 347] | > 10000
O=C(NC1CCCc2c(-c3ccccc3)cccc21)c1ccc(C(F)(F)F)[nH]c1=O (stereo not drawn) [Compound 348, 2-oxo-N-(5-phenyl-1,2,3,4-tetrahydronaphthalen-1-yl)-6-(trifluoromethyl)-1,2-dihydropyridine-3-carboxamide] | 9840
COc1ccc2c(c1)CCC(OC)C2NC(=O)c1ccc(C(F)(F)F)[nH]c1=O (stereo not drawn) [Compound 349, N-(2,6-dimethoxy-1,2,3,4-tetrahydronaphthalen-1-yl)-2-oxo-6-(trifluoromethyl)-1,2-dihydropyridine-3-carboxamide] | 1410
COC1CCc2cc(C)ccc2C1NC(=O)c1ccc(C(F)(F)F)[nH]c1=O (stereo not drawn) [Compound 350, N-(2-methoxy-6-methyl-1,2,3,4-tetrahydronaphthalen-1-yl)-2-oxo-6-(trifluoromethyl)-1,2-dihydropyridine-3-carboxamide] | 360
Cc1ccc2c(c1)OC(C)C2NC(=O)c1ccc(C(F)(F)F)[nH]c1=O (stereo not drawn) [Compound 356, N-(2,6-dimethyl-2,3-dihydrobenzofuran-3-yl)-2-oxo-6-(trifluoromethyl)-1,2-dihydropyridine-3-carboxamide] | 2160

SMILES | IC50 [nM]
CCC[C@H]1Oc2cc(C)ccc2[C@H]1NC(=O)c1ccc(C(F)(F)F)[nH]c1=O [Compound 357, N-((2R,3R)-6-methyl-2-propyl-2,3-dihydrobenzofuran-3-yl)-2-oxo-6-(trifluoromethyl)-1,2-dihydropyridine-3-carboxamide] | 1180
CC[C@@H]1Oc2cc(C)ccc2[C@@H]1NC(=O)c1ccc(C(F)(F)F)[nH]c1=O [Compound 359, N-((2S,3S)-2-ethyl-6-methyl-2,3-dihydrobenzofuran-3-yl)-2-oxo-6-(trifluoromethyl)-1,2-dihydropyridine-3-carboxamide] | 2150
Cc1ccc2c(c1)C(NC(=O)c1ccc(C(F)(F)F)[nH]c1=O)C(C)O2 (stereo not drawn) [Compound 363, N-(2,5-dimethyl-2,3-dihydrobenzofuran-3-yl)-2-oxo-6-(trifluoromethyl)-1,2-dihydropyridine-3-carboxamide] | 2470
CC[C@@H]1C[C@@H](NC(=O)c2ccc(C(F)(F)F)[nH]c2=O)c2cc(C)ccc2N1 [Compound 364, N-((2R,4R)-2-ethyl-6-methyl-1,2,3,4-tetrahydroquinolin-4-yl)-2-oxo-6-(trifluoromethyl)-1,2-dihydropyridine-3-carboxamide] | 600
CC[C@H]1C[C@@H](NC(=O)c2ccc(C(F)(F)F)[nH]c2=O)c2cc(C)ccc2N1 [Compound 365, N-((2S,4R)-2-ethyl-6-methyl-1,2,3,4-tetrahydroquinolin-4-yl)-2-oxo-6-(trifluoromethyl)-1,2-dihydropyridine-3-carboxamide] | 160
CC[C@@H]1C[C@@H](NC(=O)c2ccc(C(F)(F)F)[nH]c2=O)c2ccc(C)cc2N1 [Compound 367, N-((2R,4R)-2-ethyl-7-methyl-1,2,3,4-tetrahydroquinolin-4-yl)-2-oxo-6-(trifluoromethyl)-1,2-dihydropyridine-3-carboxamide] | 380
Cc1ccc2c(c1)[C@H](NC(=O)c1ccc(C(F)(F)F)[nH]c1=O)C[C@H](C)N2 [Compound 371, N-((2S,4R)-2,6-dimethyl-1,2,3,4-tetrahydroquinolin-4-yl)-2-oxo-6-(trifluoromethyl)-1,2-dihydropyridine-3-carboxamide] | 1420
CCN1Cc2cc(C)ccc2C(NC(=O)c2ccc(C(F)(F)F)[nH]c2=O)C1=O (stereo not drawn) [Compound 373, N-(2-ethyl-7-methyl-3-oxo-1,2,3,4-tetrahydroisoquinolin-4-yl)-2-oxo-6-(trifluoromethyl)-1,2-dihydropyridine-3-carboxamide] | 1730
Cc1ccc2c(c1)CNC(=O)C2NC(=O)c1ccc(C(F)(F)F)[nH]c1=O (stereo not drawn) [Compound 374, N-(7-methyl-3-oxo-1,2,3,4-tetrahydroisoquinolin-4-yl)-2-oxo-6-(trifluoromethyl)-1,2-dihydropyridine-3-carboxamide] | 2490
Cc1ccc2c(c1)CN(C)C(=O)C2NC(=O)c1ccc(C(F)(F)F)[nH]c1=O (stereo not drawn) [Compound 375, N-(2,7-dimethyl-3-oxo-1,2,3,4-tetrahydroisoquinolin-4-yl)-2-oxo-6-(trifluoromethyl)-1,2-dihydropyridine-3-carboxamide] | 2400
Cc1ccc2c(c1)c(NC(=O)c1ccc(C(F)(F)F)[nH]c1=O)cn2C [Compound 376, N-(1,5-dimethyl-1H-indol-3-yl)-2-oxo-6-(trifluoromethyl)-1,2-dihydropyridine-3-carboxamide] | 2840
Cc1ccc2[nH]cc(NC(=O)c3ccc(C(F)(F)F)[nH]c3=O)c2c1 [Compound 377, N-(5-methyl-1H-indol-3-yl)-2-oxo-6-(trifluoromethyl)-1,2-dihydropyridine-3-carboxamide] | 7770
Cc1ccc2[nH]c(C)c(NC(=O)c3ccc(C(F)(F)F)[nH]c3=O)c2c1 [Compound 378, N-(2,5-dimethyl-1H-indol-3-yl)-2-oxo-6-(trifluoromethyl)-1,2-dihydropyridine-3-carboxamide] | 760
Cc1ccc2c(NC(=O)c3ccc(C(F)(F)F)[nH]c3=O)cn(C)c2c1 [Compound 379, N-(1,6-dimethyl-1H-indol-3-yl)-2-oxo-6-(trifluoromethyl)-1,2-dihydropyridine-3-carboxamide] | 4820
Cc1ccc2c(NC(=O)c3ccc(C(F)(F)F)[nH]c3=O)coc2c1 [Compound 380, N-(6-methylbenzofuran-3-yl)-2-oxo-6-(trifluoromethyl)-1,2-dihydropyridine-3-carboxamide] | > 10000
CCCC1CC(NC(=O)c2ccc(C(F)(F)F)[nH]c2=O)c2ccc(C)cc2S1 (stereo not drawn) [Compound 381, N-(7-methyl-2-propylthiochroman-4-yl)-2-oxo-6-(trifluoromethyl)-1,2-dihydropyridine-3-carboxamide] | 130
CCCC1CC(NC(=O)c2ccc(C(F)(F)F)[nH]c2=O)c2cc(C)ccc2S1 (stereo not drawn) [Compound 382, N-(6-methyl-2-propylthiochroman-4-yl)-2-oxo-6-(trifluoromethyl)-1,2-dihydropyridine-3-carboxamide] | 130
Cc1ccc2c(c1)C(NC(=O)c1ccc(C(F)(F)F)[nH]c1=O)CC(C)S2 (stereo not drawn) [Compound 386, N-(2,6-dimethylthiochroman-4-yl)-2-oxo-6-(trifluoromethyl)-1,2-dihydropyridine-3-carboxamide] | 170

Reference: patent US11957687B2 (REGENERON PHARMACEUTICALS, INC., priority 2019, dated 2024)
